Measurements from patent publication EP0333356A2, “Hirudin peptides” (BIOGEN, INC., priority 1988, dated 1989).

What was measured:
bovine plasma thrombin = biological target: T1, bovine plasma thrombin (Bos taurus, UniProt P00735); assay: thrombin-catalyzed hydrolysis of tosyl-Gly-Pro-Arg-p-nitroanilide (Chromozym TH); type: biochemical; conditions: 4.2 x 10⁻⁶ M to 2.1 x 10⁻⁷ M peptide
T1 construct: bovine plasma thrombin, Calbiochem, Behring Diagnostics, La Jolla, CA; purchased Calbiochem, Behring Diagnostics, La Jolla, CA; host or cells: bovine plasma
Method: We analyzed the hirudin peptides of this invention for inhibition of thrombin-catalyzed hydrolysis of the tripeptidyl p-nitroanilide substrate tosyl-Gly-Pro-Arg-p-nitroanilide (Chromozym TH, Boehringer-Mannheim, Indianapolis, In.) spectrophotometrically at 420 nm on a Cary 219 double-beam spectrophotometer. Reactions were prepared by mixing 10 µl of thrombin solution (bovine plasma thrombin, Calbiochem, Behring Diagnostics, La Jolla, CA, 0.1 mg/ml in 0.1 M Tris-HCl, pH 7.4, 0.15 M NaCl) with 1.0 ml of 0.1 M Tris-HCl, pH 7.4, 0.15 M NaCl buffer. We then added 25 µl of substrate solution (4 mg/ml tosyl-Gly-Pro-Arg-p-nitroanilide in the above buffer) and varying amounts of hirudin₄₅₋₆₄ (as prepared in Example 4) from a 1.0 mg/ml stock solution to a final fixed volume of 1.035 ml, with final concentrations of thrombin and substrate of 2.8 x 10⁻⁸ M and 1.4 x 10⁻⁴ M, respectively.

thrombin = biological target: T2, thrombin (Homo sapiens, UniProt P00734); assay: activated partial thromboplastin time (APTT) assay of pooled normal human plasma; type: biochemical; conditions: result in words
T2 construct: pooled, normal human plasma (George King Biomedical, Inc., Overland Park, Kansas); tissue George King Biomedical, Inc; host or cells: pooled normal human plasma
Method: Anticoagulant activity was determined by assaying APTT of pooled, normal human plasma (George King Biomedical, Inc., Overland Park, Kansas) (diluted 4:1, v/v, plasma:water) with a Coag-A-Mate 2001 instrument (General Diagnostics, Inc.. Morris Plains, New Jersey). Specifically, diluted plasma was mixed with stock solutions of hirudin peptides at concentrations ranging from 750 µg/ml in water, for non-sulfated hirudin peptides, to 35 µg/ml in water for sulfated hirudin peptides. The plasma and hirudin peptides were mixed to a final volume of 125 µl prior to each APTT determination.
We began the APTT assay by adding 92 µl of a crude thromboplastin suspension (General Diagnostics) and 100 µl of 0.3 M calcium chloride reagent to each well of a Coag-A-Mate dish (General Diagnostics) per APTT determination, to a final volume of assay mixture per well of 317 µl. The calcium chloride was prepared fresh prior to each assay. Activation times were constant at 180 sec.

Compound	inhibitory effect on thrombin-catalyzed hydrolysis of the artificial substrate (bovine plasma thrombin)	increase in clotting time (APTT) (thrombin)	increase in clotting time (APTT) (thrombin; listed as hirudin₅₃₋₆₂)
CC[C@H](C)[C@H](NC(=O)[C@H](CCC(=O)O)NC(=O)[C@H](CCC(=O)O)NC(=O)[C@H](Cc1ccccc1)NC(=O)[C@H](CC(=O)O)NC(=O)CNC(=O)[C@H](CC(N)=O)NC(=O)[C@H](CC(N)=O)NC(=O)[C@H](Cc1c[nH]cn1)NC(=O)[C@H](CO)NC(=O)[C@H](CCC(=O)O)NC(=O)[C@@H]1CCCN1C(=O)[C@H](CC(N)=O)NC(=O)[C@@H]1CCCN1C(=O)[C@@H](N)[C@@H](C)O)C(=O)N1CCC[C@H]1C(=O)N[C@@H](CCC(=O)O)C(=O)N[C@@H](CCC(=O)O)C(=O)N[C@@H](Cc1ccc(O)cc1)C(=O)N[C@@H](CC(C)C)C(=O)O [hirudin₄₅₋₆₄]	no measurable inhibitory effect	–	–
H-NGDFEEIPEE-OH [des(Tyr-Leu) hirudin₅₃₋₆₂]	–	no comparative increase in clotting time	no reasonable inhibitory activity
